Assay results reported in the SangsterLogP compilation.

Structure (SMILES) | logP
CC1CCC2CC(=O)N(CC(=O)O)C3OC4(C)CCC1C23OO4 (stereo not given) | 1.75
CC1CCC2CC(=O)N(CCCc3ccccc3)C3OC4(C)CCC1C23OO4 (stereo not given) | 4.39
CCCN1C(=O)CC2CCC(C)C3CCC4(C)OOC23C1O4 (stereo not given) | 3.41
CCCCCN1C(=O)CC2CCC(C)C3CCC4(C)OOC23C1O4 (stereo not given) | 4.24
CC1CCC2CC(=O)N(Cc3ccc(Cl)cc3)C3OC4(C)CCC1C23OO4 (stereo not given) | 4.32
CC(C)CCN1C(=O)CC2CCC(C)C3CCC4(C)OOC23C1O4 (stereo not given) | 4.16
C[C@@H]1CC[C@H]2[C@@H](C)C(=O)O[C@@H]3O[C@@]4(C)CC[C@@H]1[C@]32OO4 (relative stereo) | 2.9
CC1CCC2CC(=O)N(CCc3ccccc3)C3OC4(C)CCC1C23OO4 (stereo not given) | 3.94
C[C@@H]1CC[C@H]2[C@@H](C)CO[C@@H]3O[C@]4(C)CC[C@@H]1[C@]32OO4 | 3.16
CC(C)CN1C(=O)CC2CCC(C)C3CCC4(C)OOC23C1O4 (stereo not given) | 3.66
